Data as given in patent US9085598B2, “Compounds targeting the cell invasion protein complex, their pharmaceutical compositions and methods of use thereof” (THE ROYAL INSTITUTE FOR THE ADVANCEMENT OF LEARNING/MCGILL …, priority 2011, dated 2015).
Like-named read-outs stand apart in the source and are kept apart here.

Experiments:
DU145 cells = assay: Inhibition of cell proliferation, MTT metabolic assay; type: cell-based
Procedure: Exponentially growing DU145 or MDA-231 cells (1×10^3 cells) were seeded in 96-well plates. The final concentration of DMSO was less than 0.05%. After 96 hours, the cell survival was evaluated using 3-(4,5-dimethylthiazo-2-yl)-2,5-diphenyltetrazolium bromide (MTT) metabolic assay. The inhibitory activity (IC50) of the compounds on MDA-231 and DU145 cell proliferation was determined. The results are presented in Table 1 for a representative number of compounds.

FAK = molecular target: T1, FAK (Homo sapiens, UniProt Q05397); assay: In vitro kinase activity (Kinase-Glo luminescence); type: biochemical; details: for FAK inhibition (% at 1 μM): Table 1; for inhibition at 1 µM: read-out: FAK inhibition (% at 1 μM)
T1 construct: Human recombinant full-length kinases were incubated in kinase buffer
Procedure: Human recombinant full-length kinases were incubated in kinase buffer containing ATP and substrate (Poly Glu:Tyr) for 4 hours at room temperature with or without the presence of the compounds listed in Table 1 at various concentrations. Remaining ATP in solution was then quantified using the Kinase-Glo-Iuminescence™ kit (Promega).

MDA-231 cells = assay: Inhibition of cell proliferation, MTT metabolic assay; type: cell-based; details: 96 hours continuous treatment, read-out: MDA231- IC50
Procedure: Exponentially growing DU145 or MDA-231 cells (1×10^3 cells) were seeded in 96-well plates. The final concentration of DMSO was less than 0.05%. After 96 hours, the cell survival was evaluated using 3-(4,5-dimethylthiazo-2-yl)-2,5-diphenyltetrazolium bromide (MTT) metabolic assay.

[1] = Homo sapiens, DU-145, 96 hours continuous treatment
[2] = Homo sapiens, MDA-MB-231, MDA-231 cell proliferation

T1 sequence (Q05397 whole entry): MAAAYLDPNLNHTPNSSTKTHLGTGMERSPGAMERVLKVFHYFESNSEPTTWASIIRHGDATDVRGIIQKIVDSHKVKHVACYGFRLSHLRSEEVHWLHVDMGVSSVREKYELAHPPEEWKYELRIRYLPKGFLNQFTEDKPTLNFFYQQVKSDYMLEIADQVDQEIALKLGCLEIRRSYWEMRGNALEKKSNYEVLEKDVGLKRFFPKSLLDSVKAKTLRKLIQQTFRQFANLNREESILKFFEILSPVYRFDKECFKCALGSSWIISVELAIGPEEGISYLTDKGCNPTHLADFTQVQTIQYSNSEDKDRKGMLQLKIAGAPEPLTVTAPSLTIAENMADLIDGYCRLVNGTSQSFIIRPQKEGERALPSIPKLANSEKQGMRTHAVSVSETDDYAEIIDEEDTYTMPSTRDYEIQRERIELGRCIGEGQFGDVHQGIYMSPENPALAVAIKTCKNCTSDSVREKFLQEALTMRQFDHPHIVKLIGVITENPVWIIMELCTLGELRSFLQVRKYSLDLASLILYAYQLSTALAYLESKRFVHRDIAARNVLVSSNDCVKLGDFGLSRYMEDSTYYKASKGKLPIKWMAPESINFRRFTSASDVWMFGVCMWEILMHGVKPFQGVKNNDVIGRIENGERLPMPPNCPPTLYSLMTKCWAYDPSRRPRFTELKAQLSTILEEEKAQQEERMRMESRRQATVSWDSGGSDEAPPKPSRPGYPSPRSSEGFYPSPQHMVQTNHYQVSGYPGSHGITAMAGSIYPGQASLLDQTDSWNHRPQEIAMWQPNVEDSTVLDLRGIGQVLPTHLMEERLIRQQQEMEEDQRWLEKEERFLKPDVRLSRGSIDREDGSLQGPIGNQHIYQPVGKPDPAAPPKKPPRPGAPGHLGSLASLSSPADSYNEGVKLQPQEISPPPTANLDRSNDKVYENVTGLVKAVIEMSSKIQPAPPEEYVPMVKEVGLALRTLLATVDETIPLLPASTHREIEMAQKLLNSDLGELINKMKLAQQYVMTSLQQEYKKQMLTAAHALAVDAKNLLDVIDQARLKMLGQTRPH

Row | Compound | IC50 (DU145 cells; 96 hours continuous treatment) | FAK inhibition (% at 1 μM) (FAK) | IC50 (MDA-231 cells; MDA-231 cell proliferation) | IC50 (DU145 cells; [1]) | inhibition at 1 µM (FAK) | IC50 (MDA-231 cells; [2])
1 | 2-(4-(2,3,4,6-tetra-O-acetyl-β-D-glucopyranosyl)phenzyl)-1,2-benzisoselenazol-3(2H)-one [Compound 8] | 33.7 µM | 12% | 24.6 µM |  |  | 
2 | 2-(4-(β-D-glucopyranosyl)phenzyl)-1,2-benzisoselenazol-3(2H)-one [Compound 9] | 277 µM | 4% | 380 µM |  |  | 
3 | CC(=O)OC[C@H]1O[C@@H](n2[se]c3ccccc3c2=O)[C@H](OC(C)=O)[C@@H](OC(C)=O)[C@H]1OC(C)=O [Compound 2, 2-(1-deoxy-2,3,4,6-tetra-O-acetyl-β-D-galactopyranosyl)-1,2-benzisoselenazol-3(2H)-one] | 224 µM |  | > 100 µM |  |  | 
4 | O=c1c2ccccc2[se]n1[C@@H]1O[C@H](CO)[C@H](O)[C@H](O)[C@H]1O [Compound 3, 2-(1-deoxy-β-D-galactopyranosyl)-1,2-benzisoselenazol-3(2H)-one] | 24.3 µM |  | 21 µM |  |  | 
5 | O=c1c2ccccc2[se]n1[C@@H]1O[C@H](CO)[C@@H](O[C@@H]2O[C@H](CO)[C@H](O)[C@H](O)[C@H]2O)[C@H](O)[C@H]1O [Compound 5, 2-(1-deoxy-β-D-lactosyl)-1,2-benzisoselenazol-3(2H)-one] | 24.6 µM |  | 18.1 µM |  |  | 
6 | CC(=O)OC[C@H]1O[C@@H](NC(=O)Cn2[se]c3ccccc3c2=O)[C@H](OC(C)=O)[C@@H](OC(C)=O)[C@@H]1OC(C)=O [Compound 6, 2-(3-oxo-1,2-benzisoselenazol-2(3H)-yl)-N-(1-deoxy-2,3,4,6-tetra-O-acetyl-β-D-glucopyranosyl)-acetamide] | 145 µM |  | 275 µM |  |  | 
7 | O=C(Cn1[se]c2ccccc2c1=O)N[C@@H]1O[C@H](CO)[C@@H](O)[C@H](O)[C@H]1O [Compound 7, 2-(3-oxo-1,2-benzisoselenazol-2(3H)-yl)-N-(1-deoxy-β-D-glucopyranosyl)-acetamide] | 40.3 µM | 8% | 52 µM |  |  | 
8 | O=C(CCCn1[se]c2ccccc2c1=O)N[C@@H]1OC(CO)[C@H](O)C(O)C1O (some centres unmarked) [Compound 14] |  |  |  | 66.4 µM | 13% | 54 µM
9 | CC(=O)OCC1O[C@@H](NC(=O)CCCn2[se]c3ccccc3c2=O)C(OC(C)=O)C(OC(C)=O)[C@@H]1O[C@@H]1OC(COC(C)=O)[C@H](OC(C)=O)C(OC(C)=O)C1OC(C)=O (some centres unmarked) [Compound 15] |  |  |  | 34.5 µM |  | 
10 | O=C(CCCn1[se]c2ccccc2c1=O)N[C@@H]1OC(CO)[C@@H](O[C@@H]2OC(CO)[C@H](O)C(O)C2O)C(O)C1O (some centres unmarked) [Compound 16] |  |  |  | 39.7 µM |  | 
11 | CC(=O)OCC1O[C@@H](OC(=O)Cn2[se]c3ccccc3c2=O)C(OC(C)=O)C(OC(C)=O)[C@@H]1OC(C)=O (some centres unmarked) [Compound 17] |  |  |  | 30.4 µM | 51.9% | 35 µM
12 | O=c1c2ccccc2[se]n1CCO[C@@H]1OC(CO)[C@@H](O)C(O)C1O (some centres unmarked) [Compound 18] |  |  |  | 125 µM |  | > 100 µM
13 | CC(=O)OCC1O[C@@H](n2[se]c3ccccc3c2=O)C(OC(C)=O)C(OC(C)=O)[C@@H]1OC(C)=O (some centres unmarked) [Compound 19] |  |  |  | 11.9 µM |  | 5.2 µM
14 | O=C(Cn1[se]c2ccccc2c1=O)N[C@@H]1OC(CO)[C@@H](O)C(O)C1O (some centres unmarked) [Compound 20] |  |  |  | 395 µM | 15% | 550 µM
15 | CC(=O)OCC1O[C@@H](NC(=O)c2ccc(-n3[se]c4ccccc4c3=O)cc2)C(OC(C)=O)C(OC(C)=O)[C@@H]1OC(C)=O (some centres unmarked) [Compound 21] |  |  |  |  | 54% | 5.5 µM
16 | O=C(N[C@@H]1OC(CO)[C@@H](O)C(O)C1O)c1ccc(-n2[se]c3ccccc3c2=O)cc1 (some centres unmarked) [Compound 22] |  |  |  |  | 60% | 2.7 µM
17 | O=C(N[C@@H]1OC(CO)[C@H](O)C(O)C1O)c1ccc(-n2[se]c3ccccc3c2=O)cc1 (some centres unmarked) [Compound 23] |  |  |  |  | 32% | 12.7 µM
18 | CC(=O)OCC1O[C@@H](NC(=O)c2ccc(-n3[se]c4ccccc4c3=O)cc2)C(OC(C)=O)C(OC(C)=O)[C@H]1OC(C)=O (some centres unmarked) [Compound 24] |  |  |  |  | 72% | 15.3 µM
19 | CC(=O)OCC1O[C@@H](Oc2ccc(-n3[se]c4ccccc4c3=O)cc2)C(OC(C)=O)C(OC(C)=O)[C@@H]1OC(C)=O (some centres unmarked) [Compound 25] |  |  |  |  | 65% | 11.4 µM
20 | O=c1c2ccccc2[se]n1-c1ccc(O[C@@H]2OC(CO)[C@@H](O)C(O)C2O)cc1 (some centres unmarked) [Compound 26] |  |  |  |  | 15% | 4.4 µM
21 | CC(=O)OCC1O[C@@H](NC(=O)c2ccc(-n3[se]c4ccccc4c3=O)cc2)C(OC(C)=O)C(OC(C)=O)[C@@H]1O[C@@H]1OC(COC(C)=O)[C@H](OC(C)=O)C(OC(C)=O)C1OC(C)=O (some centres unmarked) [Compound 27] |  |  |  |  | 12% | 6.8 µM
22 | CC(=O)OCC1O[C@@H](OC(=O)c2ccc(-n3[se]c4ccccc4c3=O)cc2)C(OC(C)=O)C(OC(C)=O)[C@@H]1OC(C)=O (some centres unmarked) [Compound 28] |  |  |  |  | 85% | 4.3 µM
23 | CC(=O)OCC1O[C@@H](OC(=O)c2ccc(-n3[se]c4ccccc4c3=O)cc2)C(OC(C)=O)C(OC(C)=O)[C@H]1OC(C)=O (some centres unmarked) [Compound 29] |  |  |  |  | 11% | 3.7 µM
24 | CC(=O)OCC1O[C@@H](OC(=O)c2ccc(-n3[se]c4ccccc4c3=O)cc2)C(OC(C)=O)C(OC(C)=O)[C@@H]1O[C@@H]1OC(COC(C)=O)[C@H](OC(C)=O)C(OC(C)=O)C1OC(C)=O (some centres unmarked) [Compound 30] |  |  |  |  | 94% | 2.2 µM
25 | O=C(OCC1O[C@@H](OC(=O)c2ccc(-n3[se]c4ccccc4c3=O)cc2)C(OC(=O)c2ccccc2)C(OC(=O)c2ccccc2)[C@@H]1OC(=O)c1ccccc1)c1ccccc1 (some centres unmarked) [Compound 31] |  |  |  |  | 8% | 22.9 µM
26 | (2,3,4,6-tetra-O-acetyl-β-D-glucopyranosyl)-4-(3-oxo-1,2-benzisoselenazol-2(3H)-yl)benzoate [Compound 10] | 30.6 µM |  | 57.5 µM |  |  | 
